# Source: patent US20080312184A1 (priority 2005, published 2008)
# Assays:
# [1] = test system: gray mold fungus (MBC resistant, dicarboximide-based chemical sensitive: RS strain); assay: Control Test on Gray Mold of Tomato at its Flowering Stage (RS Strain); format: in vivo, tomatoes (cultivar: House-Momotaro); settings: Table 4, single active ingredient, sprayed twice, examined after 7 days
# [2] = test system: powdery mildew pathogen (EBI resistant strain); assay: Control Test on Powdery Mildew of Cucumbers (EBI Resistant Strain); format: in vivo, cucumbers (cultivar: sagami-hanjiro); settings: single active ingredient
# [3] = Table 1, treated concentration 10 ppm, examined after 14 days
structure (smiles),measurement,setting,value
"CC(C)CC(C)c1sccc1NC(=O)c1cn(C)nc1C(F)(F)F (racemic) [P (penthiopyrad), (RS)—N-[2-(1,3-dimethylbutyl)thiophen-3-yl]-1-methyl-3-tri fluoromethyl-1H-pyrazole-4-carboxamide]",Control Value,[1]; treated concentration 10 ppm,56
same,Control Value,[2]; [3],68
same,Control Value,"[2]; Table 7 (Example B), treated concentration 10 ppm",68
"Clc1nc(Cl)nc(Nc2ccccc2Cl)n1 [Anilazine, anilazine]",Control Value,[1]; treated concentration 50 ppm,40
"O=C(Nc1ccccc1-c1ccc(Cl)cc1)c1cccnc1Cl [Boscalid, boscalid]",Control Value,[1]; treated concentration 20 ppm,48
"CCCCc1c(C)nc(NCC)nc1OS(=O)(=O)N(C)C [Bupirimate, bupirimate]",Control Value,"[2]; Table 1, treated concentration 20 ppm, examined after 14 days",45
"CCOC(=O)C1(C)OC(=O)N(c2cc(Cl)cc(Cl)c2)C1=O (stereo not drawn) [Chlozolinate, chlozolinate]",Control Value,[1]; treated concentration 40 ppm,42
"O=C(Cc1ccccc1)N/C(=N\OCC1CC1)c1c(C(F)(F)F)ccc(F)c1F [Cyflufenamid, cyflufenamid]",Control Value,"[2]; Table 1, treated concentration 5 ppm, examined after 14 days",66
"CNC(=O)/C(=N/OC)c1ccccc1COc1cc(C)ccc1C [Dimoxystrobin, dimoxystrobin]",Control Value,"[2]; Table 7 (Example B), treated concentration 15 ppm",60
"CC1(C(=O)Nc2ccc(O)c(Cl)c2Cl)CCCCC1 [Fenhexamid, fenhexamid]",Control Value,[1]; treated concentration 20 ppm,55
"FC(F)C(F)(F)OCC(Cn1cncn1)c1ccc(Cl)cc1Cl (stereo not drawn) [Tetraconazole, tetraconazole]",Control Value,[2]; [3],34
"CC(C)(C)C(=O)C(Oc1ccc(Cl)cc1)n1cncn1 (stereo not drawn) [Triadimefon, triadimefon]",Control Value,[2]; [3],29
